Results on one substance are retold here after patent publication US7001735B2, “Glucose transporter/sensor protein and uses thereof” (Albert Einstein College of Medicine of Yeshiva University, priority 2000, dated 2006).

Assay [1] deals with GLUTx. Briefly: Immunocytochemical localisation of GLUTx in insulin-stimulated MTLn3 cells. It is filed as cell-based, rat. The following applies: insulin 500 nM, 1 h, basal state perinuclear Golgi region, data not shown. How it is done: (§1) Immunohistochemistry was performed according to protocols provided by the Dako LSAB (labeled streptoavidin biotin reagents) and Dako EnVision+System (peroxidase, DAB) kits. However, some modifications were made. In brief, tissue on a slide was deparaffinized in xylene, and rehydrated in water. For cells that were processed, the slides or coverslips containing the cells were fixed in 4% paraformaldehyde for 1 h, then washed 4 times in buffered solution (TBS). The slides were placed in 3% H2O2 for 15 min in a 37° C. water bath to quench endogenous peroxidase activity. Epitope retrieval in paraffin-embedded tissue was achieved by heating the slides to 95° C. in a pre-heated citric acid solution (0.01 M citric acid, 0.01 M sodium citrate; pH 6.0). This temperature was maintained for 15 min in a microwave on high power or in a steam bath. The slides then were cooled. At this point, processing was started for the slides containing fixed cells.
(§2) Next, the primary antibody to GLUTx was applied to the slides for 30 min at room temperature (RT). Slides were rinsed in TBS 3 times for 5 min. The slides then were incubated with secondary antibody, as provided in the kit, for 15–20 min at RT. The slides were rinsed well with PBS, and the tertiary reagent (Strep-Avidin or HRP-labeled EnVision polymer) was applied for 15–20 min at RT. […]

Assay [2] has as its system GLUTx. Nature of the assay: Immunocytochemical localisation of GLUTx in insulin-stimulated MTC cells. The following applies: insulin 500 nM, 1 h, basal state mainly perinuclear Golgi region, data not shown. It is filed as cell-based, rat. On the procedure: as §1, §2

Consider “insulin: hormone used to stimulate the cells (500 nM for 1 h)”, for which the “distribution of GLUTx (light microscopy)” value in the assay on GLUTx [1] was “also associated with the cell membrane”; with GLUTx [2] it was “localized also on the cell membrane”.
